For 57 molecules, IC50 results are on record in patent US20160237071A1, “T-TYPE CALCIUM CHANNEL INHIBITOR” (NISSAN CHEMICAL INDUSTRIES, LTD., priority 2013, published 2016).

The test addresses T1, Human T-type calcium channel (Cav 3.2) (Homo sapiens, UniProt O95180).
T1 construct: Edward Perez-Reyes, University of Virginia, USA; host or cells: HEK293
Briefly: Calcium influx inhibition assay. Particulars: T-type calcium channel inhibition concentration; Cav 3.2 expressing HEK293 cells, FLIPR Calcium 4 fluorescence; read-out: C50. In kind it is cell-based. The protocol:
Human T-type calcium channel (Cav 3.2) expressing HEK293 cells were obtained from Prof. Edward Perez-Reyes, University of Virginia, USA. The calcium-sensitive fluorescent dye used was FLIPR Calcium 4 Assay Kit (Molecular Devices).
To a black 96-well plate with a clear bottom coated with type I collagen, the human T-type calcium channel (Cav 3.2) expressing HEK293 cells were seeded and cultured overnight, and the culture medium was removed. A solution of the calcium-sensitive fluorescent dye was added, and the whole was incubated at 37° C. in an atmosphere of 5% carbon dioxide for 30 minutes. To the plate, a diluted solution of a compound was added, and the whole was further incubated at 37° C. in an atmosphere of 5% carbon dioxide for 30 minutes. While fluorescence was continuously analyzed from the bottom with a FlexStation 3 (Molecular Devices), a calcium solution was added. […] From the rise in the fluorescence from the base line, the inhibition percentage was calculated. The logarithms of compound concentrations were plotted with respect to the inhibition activities to obtain an IC50 value (50% inhibition concentration).

Each structure is given as a SMILES string.

T1 sequence (O95180 whole entry): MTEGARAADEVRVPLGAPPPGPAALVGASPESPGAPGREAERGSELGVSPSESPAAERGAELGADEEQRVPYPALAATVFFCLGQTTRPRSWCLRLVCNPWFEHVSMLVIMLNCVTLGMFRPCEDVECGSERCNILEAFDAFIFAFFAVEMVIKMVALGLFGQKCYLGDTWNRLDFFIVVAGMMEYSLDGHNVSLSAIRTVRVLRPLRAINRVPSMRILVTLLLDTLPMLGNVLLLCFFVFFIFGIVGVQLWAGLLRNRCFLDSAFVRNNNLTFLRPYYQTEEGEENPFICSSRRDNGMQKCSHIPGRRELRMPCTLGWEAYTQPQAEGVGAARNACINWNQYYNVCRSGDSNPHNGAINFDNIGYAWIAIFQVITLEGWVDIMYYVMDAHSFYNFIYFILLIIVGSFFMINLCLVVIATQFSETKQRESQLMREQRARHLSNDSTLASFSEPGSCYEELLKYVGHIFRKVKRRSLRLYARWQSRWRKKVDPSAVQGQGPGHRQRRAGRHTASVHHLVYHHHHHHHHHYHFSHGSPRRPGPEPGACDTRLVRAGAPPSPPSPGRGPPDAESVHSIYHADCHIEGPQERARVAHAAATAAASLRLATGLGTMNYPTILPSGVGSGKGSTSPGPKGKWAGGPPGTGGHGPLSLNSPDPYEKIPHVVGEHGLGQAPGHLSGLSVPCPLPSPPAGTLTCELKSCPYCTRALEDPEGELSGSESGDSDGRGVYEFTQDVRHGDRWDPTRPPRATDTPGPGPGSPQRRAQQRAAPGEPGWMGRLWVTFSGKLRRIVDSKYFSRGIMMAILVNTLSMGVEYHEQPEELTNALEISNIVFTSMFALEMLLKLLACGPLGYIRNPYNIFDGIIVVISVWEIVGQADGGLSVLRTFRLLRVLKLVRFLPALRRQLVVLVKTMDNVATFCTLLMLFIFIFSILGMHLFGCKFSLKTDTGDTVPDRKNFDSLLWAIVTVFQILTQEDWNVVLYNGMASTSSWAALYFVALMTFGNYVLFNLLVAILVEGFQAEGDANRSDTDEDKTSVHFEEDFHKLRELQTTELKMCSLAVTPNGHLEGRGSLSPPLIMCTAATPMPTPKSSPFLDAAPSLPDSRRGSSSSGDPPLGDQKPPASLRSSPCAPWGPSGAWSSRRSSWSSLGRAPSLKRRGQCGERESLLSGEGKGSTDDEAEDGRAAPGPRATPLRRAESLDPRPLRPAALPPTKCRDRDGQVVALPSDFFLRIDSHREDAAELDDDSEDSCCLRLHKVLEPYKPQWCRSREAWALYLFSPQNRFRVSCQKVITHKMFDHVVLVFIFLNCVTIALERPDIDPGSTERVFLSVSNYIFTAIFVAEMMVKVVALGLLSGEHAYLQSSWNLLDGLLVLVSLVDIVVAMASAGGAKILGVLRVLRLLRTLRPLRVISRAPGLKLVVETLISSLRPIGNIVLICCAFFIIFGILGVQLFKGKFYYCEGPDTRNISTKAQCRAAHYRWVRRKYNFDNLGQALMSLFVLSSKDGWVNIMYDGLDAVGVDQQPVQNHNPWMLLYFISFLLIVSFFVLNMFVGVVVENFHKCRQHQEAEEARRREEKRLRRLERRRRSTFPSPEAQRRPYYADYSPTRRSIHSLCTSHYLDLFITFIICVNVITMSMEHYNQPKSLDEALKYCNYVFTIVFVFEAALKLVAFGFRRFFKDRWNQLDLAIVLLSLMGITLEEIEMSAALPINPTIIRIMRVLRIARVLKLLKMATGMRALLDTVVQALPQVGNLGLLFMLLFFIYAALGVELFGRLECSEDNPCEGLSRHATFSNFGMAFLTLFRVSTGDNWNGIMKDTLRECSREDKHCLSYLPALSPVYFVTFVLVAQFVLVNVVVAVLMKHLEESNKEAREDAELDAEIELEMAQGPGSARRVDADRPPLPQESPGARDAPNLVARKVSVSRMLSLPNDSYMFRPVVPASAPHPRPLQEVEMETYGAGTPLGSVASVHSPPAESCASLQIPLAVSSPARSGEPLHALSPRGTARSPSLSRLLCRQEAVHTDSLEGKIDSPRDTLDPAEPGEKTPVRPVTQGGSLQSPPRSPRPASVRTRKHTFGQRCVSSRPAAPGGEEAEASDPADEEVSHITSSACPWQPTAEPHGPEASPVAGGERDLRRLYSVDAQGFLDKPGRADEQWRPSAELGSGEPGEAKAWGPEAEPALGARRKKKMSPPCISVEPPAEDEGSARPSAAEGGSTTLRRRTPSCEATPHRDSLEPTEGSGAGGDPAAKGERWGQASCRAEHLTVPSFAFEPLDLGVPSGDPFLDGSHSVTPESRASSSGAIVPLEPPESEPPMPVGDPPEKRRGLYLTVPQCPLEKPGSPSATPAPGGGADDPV

With `COc1ccc2c(c1)CCCN(c1nc(C)n(Cc3ccc(C(F)(F)F)s3)c(=O)n1)C2` [compound 49], the IC50 is 480 nM. The same measure for `Cc1nc(N2CCc3cc(OC(F)F)ccc3C2)nc(=O)n1Cc1ccc(C(F)(F)F)s1` [compound 14]: 45 nM; for `Cc1nc(N2CCc3cc(OCC(F)(F)F)ccc3C2)nc(=O)n1Cc1cnc(C(F)(F)F)s1` [compound 5]: 320 nM; for `Cc1nc(N2CCc3ccccc32)nc(=O)n1Cc1ccc(C(F)(F)F)s1` [compound 34]: 750 nM. In the case of `Cc1nc(N2CCc3c([nH]c4cc(F)ccc34)C2)nc(=O)n1Cc1ccc(C(F)(F)F)s1` [compound 57], the IC50 turned out to be 6.4 nM. With `Cc1nc(N2CCc3sc(CO)cc3C2)nc(=O)n1Cc1ccc(C(F)(F)F)s1` [compound 20], the IC50 worked out at 400 nM. As for `COc1ccc2c(n1)CCN(c1nc(C)n(Cc3ccc(C(F)(F)F)s3)c(=O)n1)C2` [compound 22], the figure is 310 nM. The same measure for `Cc1nc(N2Cc3ccc(OCC(F)(F)F)cc3C2)nc(=O)n1Cc1ccc(C(F)(F)F)s1` [compound 46]: 360 nM; for `COc1ccc2c(c1)CCN(c1nc(C)n(Cc3ccc(C(F)(F)F)s3)c(=O)n1)CC2` [compound 29]: 40 nM. On to `Cc1nc(N2Cc3ccc(OCC4CC4)cc3C(O)C2)nc(=O)n1Cc1ccc(C(F)(F)F)s1` (stereo not drawn) [compound 47], for which the IC50 came out at 52 nM. The same measure for `Cc1cc2c(s1)CCN(c1nc(C)n(Cc3ccc(C(F)(F)F)s3)c(=O)n1)C2` [compound 19]: 260 nM. As for `COc1ccc2c(c1)/C(=N/O)CN(c1nc(C)n(Cc3ccc(C(F)(F)F)s3)c(=O)n1)C2` [compound 37], the figure is 130 nM; as for `O=c1nc(N2CCc3cc(C(F)(F)F)ccc3C2)ncn1Cc1ccc(C(F)(F)F)s1` [compound 1], 62 nM; as for `CCOC(=O)C1Cc2ccccc2CN1c1nc(C)n(Cc2ccc(C(F)(F)F)s2)c(=O)n1` (stereo not drawn) [compound 27], 2800 nM. As for `COc1ccc2c(c1)CN(c1nc(C)n(Cc3ccc(C(F)(F)F)s3)c(=O)n1)C2` [compound 48], the figure is 1900 nM; as for `Cc1nc(N2CCc3cc(F)ccc3C2)nc(=O)n1Cc1ccc(C(F)(F)F)s1` [compound 52], 290 nM.

On to `Cc1nc(N2Cc3ccc(OCC(C)C)cc3C(O)C2)nc(=O)n1Cc1ccc(C(F)(F)F)s1` (stereo not drawn) [compound 39], for which the IC50 is 75 nM. As for `COc1ccc2c(c1)C(O)CN(c1nc(C)n(Cc3ccc(F)cc3)c(=O)n1)C2` (stereo not drawn) [compound 26], the figure is 3000 nM; as for `Cc1nc(N2CCn3c(nc4cc(F)ccc43)C2)nc(=O)n1Cc1ccc(C(F)(F)F)s1` [compound 59], 270 nM. `COc1ccc2c(c1)C(O)CN(c1nc(C)n(Cc3ccc(C(F)(F)F)s3)c(=O)n1)C2` (stereo not drawn) [compound 4]: the IC50 stood at 20 nM.

For `Cc1ccc2c(n1)CCN(c1nc(C)n(Cc3ccc(C(F)(F)F)s3)c(=O)n1)C2` [compound 30], the IC50 is 3200 nM. The same measure for `Cc1nc(N2CCc3cc(Cl)ncc3C2)nc(=O)n1Cc1ccc(C(F)(F)F)s1` [compound 16]: 650 nM; for `COc1ccc2c(c1)CN(c1nc(C)n(Cc3ccc(C(F)(F)F)s3)c(=O)n1)CC2O` (stereo not drawn) [8b]: 790 nM; for `COc1ccc2c(c1)CCN(c1nc(C)n(Cc3cnc(C(F)(F)F)s3)c(=O)n1)C2` [compound 24]: 940 nM.

In the case of `CCOc1ccc2c(c1)C(O)CN(c1nc(C)n(Cc3ccc(C(F)(F)F)s3)c(=O)n1)C2` (stereo not drawn) [compound 18], the IC50 was 18 nM. `COc1ccc2c(c1)C(O)CN(c1nc(C)n(Cc3cnc(C(F)(F)F)s3)c(=O)n1)C2` (stereo not drawn) [compound 25]: the IC50 was determined as 450 nM. As for `COc1ccc2c(c1)C(=O)CN(c1nc(C)n(Cc3ccc(C(F)(F)F)s3)c(=O)n1)C2` [compound 36], the figure is 520 nM; as for `Cc1nc(N2CCc3c(Cl)ccc(Cl)c3C2)nc(=O)n1Cc1ccc(C(F)(F)F)s1` [compound 28], 320 nM. As for `COc1ccc2c(c1)C(O)CN(c1ncn(Cc3ccc(C(F)(F)F)s3)c(=O)n1)C2` (stereo not drawn) [compound 3], the figure is 95 nM. Regarding `Cc1nc(N2Cc3ccc(OCC(F)(F)F)cc3C(O)C2)nc(=O)n1Cc1ccc(C(F)(F)F)s1` (stereo not drawn) [compound 15], the IC50 worked out at 10 nM. The same measure for `COc1ccc2c(c1)C(N)CN(c1nc(C)n(Cc3ccc(C(F)(F)F)s3)c(=O)n1)C2` (stereo not drawn) [compound 32]: 27 nM. Turning to `COc1cc2c(cc1OC)CN(c1ncn(Cc3ccc(C(F)(F)F)s3)c(=O)n1)CC2` [compound 2], the IC50 stood at 540 nM. As for `Cc1nc(N2Cc3ccc(OCC(N)=O)cc3C(O)C2)nc(=O)n1Cc1ccc(C(F)(F)F)s1` (stereo not drawn) [compound 45], the figure is 320 nM; as for `Cc1nc(N2Cc3ccc(OC(F)F)cc3C(O)C2)nc(=O)n1Cc1ccc(C(F)(F)F)s1` (stereo not drawn) [compound 53], 18 nM; as for `Cc1nc(N2Cc3cc4c(cc3C(O)C2)OCO4)nc(=O)n1Cc1ccc(C(F)(F)F)s1` (stereo not drawn) [compound 54], 42 nM. For `COc1ccc2c(c1)[C@@H](O)CN(c1nc(C)n(Cc3ccc(C(F)(F)F)s3)c(=O)n1)C2` [9a], the IC50 came out at 4.9 nM. `Cc1nc(N2Cc3ccc(OCC(F)(F)F)cc3C(O)C2)nc(=O)n1Cc1cnc(C(F)(F)F)s1` (stereo not drawn) [compound 23]: the IC50 turned out to be 340 nM. The same measure for `Cc1nc(N2Cc3ccc(OC(C)C)cc3C(O)C2)nc(=O)n1Cc1ccc(C(F)(F)F)s1` (stereo not drawn) [compound 38]: 38 nM. The same measure for `Cc1nc(N2CCc3nc(Cl)ccc3C2)nc(=O)n1Cc1ccc(C(F)(F)F)s1` [compound 17]: 350 nM; for `O=c1nc(N2CCc3cc(OCC(F)(F)F)ccc3C2)ncn1Cc1ccc(C(F)(F)F)s1` [compound 13]: 55 nM. For the molecule `O=c1nc(N2CCc3cc(OC(F)F)ccc3C2)ncn1Cc1ccc(C(F)(F)F)s1` [compound 11], the IC50 was 34 nM. Regarding `COc1ccc2c(c1OC)C(O)CN(c1nc(C)n(Cc3ccc(C(F)(F)F)s3)c(=O)n1)C2` (stereo not drawn) [compound 50], the IC50 was found to be 410 nM.

Regarding `COc1ccc2c(c1)C(O)CN(c1nc(C)n(Cc3ccc(OS(=O)(=O)C(F)(F)F)nc3)c(=O)n1)C2` (stereo not drawn) [compound 10], the IC50 was 320 nM.

Turning to `COc1cccc2c1C(O)CN(c1nc(C)n(Cc3ccc(C(F)(F)F)s3)c(=O)n1)C2` (stereo not drawn) [8a], the IC50 is 63 nM.

With `Cc1nc(N2Cc3ccc(O)cc3C(O)C2)nc(=O)n1Cc1ccc(C(F)(F)F)s1` (stereo not drawn) [compound 42], the IC50 turned out to be 290 nM. Regarding `Cc1nc(N2CCc3cc(OS(=O)(=O)C(F)(F)F)ccc3C2)nc(=O)n1Cc1ccc(C(F)(F)F)s1` [compound 41], the IC50 worked out at 50 nM. The same measure for `COc1ccc2c(c1)[C@H](O)CN(c1nc(C)n(Cc3ccc(C(F)(F)F)s3)c(=O)n1)C2` [9b]: 130 nM. `O=c1nc(N2CCc3cc(OS(=O)(=O)C(F)(F)F)ccc3C2)ncn1Cc1ccc(C(F)(F)F)s1` [compound 12]: the IC50 was found to be 54 nM. In the case of `Cc1nc(N2CCc3ccc(C(F)(F)F)cc3C2)nc(=O)n1Cc1ccc(C(F)(F)F)s1` [compound 43], the IC50 is 320 nM. `Cc1nc(N2CCc3cc(OCC(F)(F)F)ccc3C2)nc(=O)n1Cc1ccc(C(F)(F)F)s1` [compound 40]: the IC50 was 250 nM. As for `Cc1nc(N2CCc3ccccc3C2)nc(=O)n1Cc1ccc(C(F)(F)F)s1` [compound 44], the figure is 320 nM. As for `Cc1nc(N2CCc3c([nH]c4cc(F)ccc34)C2)nc(=O)n1Cc1cnc(C(F)(F)F)s1` [compound 58], the figure is 52 nM; as for `Cc1nc(N2CCc3nc(C4CC4)ccc3C2)nc(=O)n1Cc1ccc(C(F)(F)F)s1` [compound 31], 240 nM. As for `COc1nc2c(s1)CN(c1nc(C)n(Cc3ccc(C(F)(F)F)s3)c(=O)n1)CC2` [compound 21], the figure is 360 nM.

On to `COc1ccc2c(c1)C(F)CN(c1nc(C)n(Cc3ccc(C(F)(F)F)s3)c(=O)n1)C2` (stereo not drawn) [compound 35], for which the IC50 was 51 nM.

In the case of `CCOC(=O)c1cc2c(s1)CCN(c1nc(C)n(Cc3ccc(C(F)(F)F)s3)c(=O)n1)C2` [compound 51], the IC50 is 340 nM. The same measure for `N#Cc1ccc2c(c1)CN(c1ncn(Cc3ccc(C(F)(F)F)s3)c(=O)n1)CC2` [compound 6]: 1800 nM.
